According to publication PMC8548355 (Medicinal Chemistry Research, 2021):
Converted amounts (≈) assume the structure as drawn.

What was measured:
[1] = test system: S. aureus ATCC 29213; assay: Drug interaction of 22 with FDA-approved drugs, checkerboard method; type: cell-based, Staphylococcus aureus
[2] = test system: K. pneumoniae BAA 1705; assay: MIC by broth microdilution against K. pneumoniae BAA 1705; type: cell-based; conditions: Klebsiella pneumoniae, BAA1705, read-out: MIC against K. pneumoniae BAA 1705
[3] = test system: S. aureus ATCC 29213; assay: MIC by broth microdilution against S. aureus ATCC 29213; type: cell-based, Staphylococcus aureus; conditions: for MIC: Staphylococcus aureus, ATCC29213, read-out: MIC against S. aureus ATCC 29213, broth microdilution, 37 °C, 16–18 h
[4] = test system: E. coli ATCC 25922; assay: MIC by broth microdilution against E. coli ATCC 25922; type: cell-based; conditions: Escherichia coli, ATCC25922, read-out: MIC against E. coli ATCC 25922
[5] = test system: A. baumannii BAA 1605; assay: MIC by broth microdilution against A. baumannii BAA 1605; type: cell-based; conditions: Acinetobacter baumannii, BAA1605, read-out: MIC against A. baumannii BAA 1605

Structure (SMILES)	MIC of drug in the presence of “22” “B” ([1]; S. aureus ATCC 29213, checkerboard, in combination with 22)	MIC ([1]; Staphylococcus aureus, ATCC29213, 24 h, read-out: MIC (drug alone))	MIC [2]	MIC [3]	MIC [4]	MIC [5]	MIC against S. aureus ATCC 29213 ([3]; broth microdilution, 37 °C, 16–18 h)	Inference (drug interaction) ([1]; combination of 22 with the drug, S. aureus ATCC 29213)
O=C(Nc1ccccc1)c1cccc(Cl)c1 [Compound 4, N-(phenyl)-3-chlorobenzamide]			> 64 µg/mL	> 64 µg/mL	> 64 µg/mL	> 64 µg/mL		
O=C(Nc1ccccc1)c1ccccc1O [Compound 5, N-(phenyl)-2-hydroxybenzamide]			> 64 µg/mL	64 µg/mL (≈ 300 µM)	> 64 µg/mL	> 64 µg/mL		
O=C(Nc1ccccc1)c1cc(Cl)ccc1O [Compound 6, 5-Chloro-N-(phenyl)-2-hydroxy-benzamide]			> 64 µg/mL	8 µg/mL (≈ 32.3 µM)	> 64 µg/mL	> 64 µg/mL		
O=C(Nc1ccc(F)cc1)c1ccccc1O [Compound 7, N-(4ʹ-fluorophenyl)-2-hydroxybenzamide]			> 64 µg/mL		> 64 µg/mL	> 64 µg/mL		
O=C(Nc1ccccc1F)c1ccccc1O [Compound 9, N-(2ʹ-fluorophenyl)-2-hydroxybenzamide]			> 64 µg/mL		> 64 µg/mL	> 64 µg/mL		
O=C(Nc1ccc(F)c(F)c1)c1cc(Cl)ccc1O [Compound 12, 5-Chloro-N-(3ʹ,4ʹ-difluorophenyl)-2-hydroxybenzamide]			> 64 µg/mL		> 64 µg/mL	> 64 µg/mL	0.5 µg/mL (≈ 1.76 µM)	

Second part, led by results:

MIC of drug in the presence of “22” “B” ([1]; S. aureus ATCC 29213, checkerboard, in combination with 22)	MIC ([1]; Staphylococcus aureus, ATCC29213, 24 h, read-out: MIC (drug alone))	MIC [2]	MIC [3]	MIC [4]	MIC [5]	MIC against S. aureus ATCC 29213 ([3]; broth microdilution, 37 °C, 16–18 h)	Structure (SMILES)	Inference (drug interaction) ([1]; combination of 22 with the drug, S. aureus ATCC 29213)
16 µg/mL	16 µg/mL						CC(C)(O/N=C(\C(=O)N[C@@H]1C(=O)N2C(C(=O)[O-])=C(C[n+]3ccccc3)CS[C@H]12)c1csc(N)n1)C(=O)O [Ceftazidime]	No interaction
		> 64 µg/mL	> 64 µg/mL	> 64 µg/mL	> 64 µg/mL		O=C(Nc1ccccc1)c1ccccc1 [Compound 3, N-phenylbenzamide]	
		> 64 µg/mL	2 µg/mL (≈ 7.53 µM)	> 64 µg/mL	> 64 µg/mL		O=C(Nc1ccc(F)cc1)c1cc(Cl)ccc1O [Compound 8, 5-Chloro-N-(4ʹ-fluorophenyl)-2-hydroxybenzamide]	
		> 64 µg/mL	4 µg/mL (≈ 15.1 µM)	> 64 µg/mL	> 64 µg/mL		O=C(Nc1ccccc1F)c1cc(Cl)ccc1O [Compound 10, 5-Chloro-N-(2ʹ-fluorophenyl)-2-hydroxybenzamide]	
		> 64 µg/mL		> 64 µg/mL	> 64 µg/mL		O=C(Nc1ccc(F)c(F)c1)c1ccccc1O [Compound 11, N-(3ʹ,4ʹ-difluorophenyl)-2-hydroxybenzamide]	
		> 64 µg/mL	4 µg/mL (≈ 15.1 µM)	> 64 µg/mL	> 64 µg/mL		O=C(Nc1ccc(F)c(Cl)c1)c1ccccc1O [Compound 13, N-(3ʹ-chloro-4ʹ-fluorophenyl)-2-hydroxybenzamide]	
			0.5 µg/mL (≈ 1.67 µM)				O=C(Nc1ccc(F)c(Cl)c1)c1cc(Cl)ccc1O [Compound 14, 5-Chloro-N-(3ʹ-chloro-4ʹ-fluorophenyl)-2-hydroxybenzamide]	
